Reference: US20080280953A1, “Agents Used for the Treatment of Seeds” (Bayer Cropscience AG, priority 2004, published 2008)

Tests used:
Format in all cases: in vivo
[1] = system: larvae of the mustard leaf beetle (Phaedon cochleariae); test: Phaedon cochleariae test (spray treatment); details: 500 g/ha
Description: [table] To prepare a suitable active compound preparation 1 part by weight of the active compound is mixed with the given amount of solvent and emulsifier and the concentrate is diluted to the desired concentration with water containing emulsifier. Chinese cabbage leaf sections (Brassica pekinensis) are sprayed with an active compound preparation at the desired concentration and after drying are infected with larvae of the mustard leaf beetle (Phaedon cochleariae). After the desired time the activity in % is determined.

[2] = system: green peach aphid (Myzus persicae); test: Myzus test (spray treatment), Chinese cabbage leaf sections; details: for activity after 5 days: 500 g/ha; for pest or weed control at 500 g/ha: Myzus persicae, 120 h, after 5 d, read-out: Death rate in % after 5 d
Description: (§1) To prepare a suitable active compound preparation 1 part by weight of the active compound is mixed with the given amount of solvent and emulsifier and the concentrate is diluted to the desired concentration with water containing emulsifier.
Chinese cabbage leaf sections (Brassica pekinensis) infested with all stages of the green peach aphid (Myzus persicae) are sprayed with an active compound preparation at the desired concentration.
After the desired time the activity in % is determined. Here 100% means that all aphids were killed; 0% means that no aphids were killed.

[3] = system: caterpillars of the fall army worm (Spodoptera frugiperda); test: Spodoptera frugiperda test (spray treatment); details: 500 g/ha
Description: as §1
Maize leaf sections (Zea mays) are sprayed with an active compound preparation at the desired concentration and after drying treated with caterpillars of the fall army worm (Spodoptera frugiperda).
After the desired time the activity in % is determined. Here 100% means that all caterpillars were killed; 0% means that no caterpillars were killed.

[4] = system: eggs of the cotton boll worm (Heliotis virescens); test: Heliothis virescens test (spray treatment); details: 500 g/ha, spray on soy bean leaves
Description: as §1
Soy bean leaves (Glycine max.) are sprayed with an active compound preparation at the desired concentration and after drying were infected with eggs of the cotton boll worm (Heliotis virescens).
After the desired time the activity in % is determined. Here 100% means that all eggs were killed; 0% means that no eggs were killed.

[5] = system: Lucilia cuprina larvae; test: Fly larvae test; details: 100 ppm
Description: 10 mg active compound were dissolved in 0.5 ml dimethylsulphoxide. To prepare a suitable formulation the active compound solution is diluted with water to the respective desired concentration.
About 20 Lucilia cuprina larvae are placed in a test tube that contains ca. 1 cm^3 horse flesh and 0.5 ml of the active compound preparation under test.
After the desired time the death rate in % is determined. Here 100% means that all larvae were killed; 0% means that no larvae were killed.

[6] = system: green peach aphid (Myzus persicae); test: Myzus persicae test (hydroponic treatment); details: pea plant; for activity after 7 days: 20 ppm
Description: To prepare a suitable active compound preparation 1 part by weight of the active compound is mixed with the given amount of solvent and emulsifier and the concentrate is diluted to the desired concentration with water.
The active compound preparation is mixed with water. The concentration given refers to the amount of active compound per unit volume water (mg/l=ppm). The treated water is placed into a vessel with one pea plant (Pisum sativum). After the prescribed time infection with the green peach aphid (Myzus persicae) is carried out.
After the desired time the death rate in % is determined. Here 100% means that all aphids were killed; 0% means that no aphids were killed.

[7] = system: adult engorged females of Boophilus microplus (strain Parkhurst-SP resistant); test: Test with resistant monoxenous cattle ticks/SP-resistant Parkhurst strain, injection method; details: 20 μg/animal injected into the abdomen
Description: 10 mg of the active compound are dissolved in 0.5 ml dimethylsulphoxide, lower concentrations are prepared by dilution with the same solvent.
The test is carried out five times. 1 μl is injected into the abdomen, the animals are transferred into dishes and stored in an air-conditioned room. The control of activity is carried out on a deposit of fertile eggs after 7 days. Eggs, the fertility of which was not visible externally, were stored in glass tubes in an incubator until larvae hatch after about 24 days. An activity of 100% means that no ticks laid fertile eggs.

[8] = system: cotton aphid (Aphis gossypii); test: Aphis gossypii test, immersion of cotton leaves; details: 100 g/ha (so in the source), cotton leaves immersed
Description: as §1
Cotton plant leaves (Gossypium hirsutum) heavily infected with the cotton aphid (Aphis gossypii) are treated by immersing in the active compound preparation at the desired concentration. After the desired time the death rate in % is determined. Here 100% means that all aphids were killed; 0% means that no aphids were killed.

[9] = system: eggs of the diamond back moth (Plutella xylostella); test: Plutella test, artificial diet; details: 1000 g/ha (so in the source), on artificial diet
Description: To prepare a suitable active compound preparation 1 part by weight active compound was mixed with the given amount of solvent and the concentrate was diluted to the desired concentration with methanol.
A given amount of active compound preparation at the desired concentration is pipetted onto a standardised amount of artificial diet. After the methanol has evaporated ca. 200-300 eggs of the diamond back moth (Plutella xylostella) are added to the diet.
After the desired time the death rate of the eggs and larvae, respectively, in % is determined. Here 100% means that all animals were killed; 0% means that no animals were killed.

[10] = system: rice brown plant hopper (Nilaparvata lugens); test: Nilaparvata lugens test; hydroponic treatment (NILALU SYS); details: 500 g/ha
Description: To prepare a suitable active compound preparation I part by weight of the active compound is mixed with the given amount of solvent and emulsifier and the concentrate is diluted to the desired concentration with water containing emulsifier.
The active compound preparation is pipetted into water. […] Infection is then carried out with rice brown plant hopper (Nilaparvata lugens).
After the desired time the activity in % is determined. Here 100% means that all plant hoppers were killed; 0% means that no plant hoppers were killed.

SMILES: CCN(Cc1ccc(Cl)nc1)C1=CC(=O)OC1 [drawing 485]
- Death rate in % after 7 d [1]: 100%

SMILES: O=C1C=C(N(Cc2ccc(F)nc2)C2CC2)CO1 [Compound 124]
- activity after 5 days [2]: 100%

SMILES: C=CCN(Cc1ccc(Cl)nc1)C1=CC(=O)OC1 [drawing 479]
- pest or weed control at 500 g/ha [2]: 100%

SMILES: CCCN(Cc1ccc(Cl)nc1)C1=CC(=O)CCC1 [Compound 4]
- activity after 5 days [2]: 100%

SMILES: CN(Cc1ccc(Cl)nc1)C1=CC(=O)SC1 [drawing 483]
- pest or weed control at 500 g/ha [2]: 80%

SMILES: CCN(Cc1ccc(Cl)nc1)C1=CC(=O)OC1 [Compound 85]
- Death rate in % after 7 d ([3]; spray on maize leaf sections, after 7 d): 100%
- Death rate in % after 7 d [4]: 100%
- death rate after 2 days [5]: 100%

SMILES: C=CCN(Cc1ccc(Cl)nc1)C1=CC(=O)OC1 [drawing 487]
- Death rate in % after 7 d [1]: 67%

SMILES: O=C1C=C(N(Cc2ccc(Cl)nc2)C2CC2)CO1 [drawing 486]
- Death rate in % after 7 d [1]: 100%

SMILES: CN(Cc1ccc(Cl)nc1)C1=CC(=O)OC1 [drawing 472]
- pest or weed control at 500 g/ha [2]: 100%

SMILES: CN(Cc1ccc(Cl)nc1)C1=CC(=O)OC1 [drawing 484]
- Death rate in % after 7 d [1]: 100%

SMILES: O=C1C=C(N(Cc2ccc(C(F)(F)F)nc2)C2CC2)CO1 [Compound 126]
- activity after 5 days [2]: 100%

SMILES: CN(Cc1ccc(Cl)nc1)C1=CC(=O)CCC1
- pest or weed control at 500 g/ha [2]: 90%

SMILES: CN(Cc1ccc(Br)nc1)C1=CC(=O)OC1 [Compound 121]
- activity after 5 days [2]: 100%
- activity after 7 days ([3]; spray, after 7 days): 100%
- activity after 7 days [6]: 100%
- death rate after 2 days [5]: 100%
- activity (no fertile eggs laid) [7]: 95%

SMILES: C#CCN(Cc1ccc(Cl)nc1)C1=CC(=O)OC1 [Compound 92]
- activity after 5 days [2]: 100%

SMILES: CN(Cc1ccc(Cl)cn1)C1=CC(=O)CC1
- Death rate in % after 6 d [8]: 95%

SMILES: C=CCN(Cc1ccc(Cl)nc1)C1=CC(=O)OC1 [drawing 495]
- Death rate in % after 6 d [8]: 95%

SMILES: CCN(Cc1ccc(Cl)nc1)C1=CC(=O)OC1 [drawing 473]
- pest or weed control at 500 g/ha [2]: 90%

SMILES: CN(Cc1cnc(Cl)s1)C1=CC(=O)OC1 [drawing 474]
- pest or weed control at 500 g/ha [2]: 100%

SMILES: CN(Cc1ccc(Cl)nc1)C1=CC(=O)OC1 [drawing 493]
- Death rate in % after 6 d [8]: 100%

SMILES: C#CCN(Cc1ccc(Cl)nc1)C1=CC(=O)CCC1 [Compound 10]
- activity after 5 days [2]: 100%

SMILES: C=CCN(Cc1ccc(Cl)nc1)C1=CC(=O)CCC1 [Compound 9]
- activity after 5 days [2]: 100%

SMILES: CN(Cc1ccc(Cl)nc1)C1=CC(=O)SC1 [Compound 112]
- Death rate in % after 7 d [9]: 100%

SMILES: CN(Cc1ccc(Cl)nc1)C1=C(F)C(=O)OC1 [Compound 104]
- death rate after 2 days [5]: 100%

SMILES: Cn1c(NCc2ccc(Cl)nc2)cc(=O)n(C)c1=O [Compound 70]
- activity after 5 days [2]: 100%

SMILES: C=CCN(Cc1ccc(Cl)nc1)C1=CC(=O)OC1 [Compound 91]
- Death rate in % after 7 d ([6]; 20 g/ha (so in the source), after 7 d): 100%

SMILES: CN(Cc1ccc(Cl)nc1)C1=C(F)C(=O)OC1 [drawing 477]
- pest or weed control at 500 g/ha [2]: 100%

SMILES: O=C1C=C(N(Cc2ccc(Cl)nc2)C2CC2)CO1 [drawing 478]
- pest or weed control at 500 g/ha [2]: 100%

SMILES: CC(=O)N(Cc1ccc(Cl)nc1)C1=CC(=O)OC1 [Compound 94]
- activity after 5 days [2]: 100%

SMILES: CN(Cc1ccc(Cl)nc1)C1=CC(=O)CC1 [drawing 481]
- pest or weed control at 500 g/ha [2]: 100%

SMILES: CC1OC(=O)C=C1N(C)Cc1ccc(Cl)nc1 (stereo not drawn)
- pest or weed control at 500 g/ha [2]: 100%

SMILES: O=C1C=C(N(Cc2ccc(Cl)nc2)C2CC2)CC1
- pest or weed control at 500 g/ha [2]: 100%

SMILES: CN(Cc1ccc(Cl)nc1)C1=CC(=O)CC1 [Compound 175]
- death rate after 2 days [5]: 100%

SMILES: O=C1C=C(NCc2ccc(Cl)nc2)CCC1 [Compound 1]
- activity after 5 days [2]: 100%
- activity after 7 days [10]: 100%

SMILES: CN(Cc1cnc(Cl)s1)C1=CC(=O)OC1 [Compound 144]
- Death rate in % after 7 d [4]: 99%

SMILES: O=C1C=C(NCc2ccc(Cl)nc2)CO1 [drawing 494]
- Death rate in % after 6 d [8]: 98%

SMILES: O=C1C=C(NCc2ccc(Cl)nc2)CO1 [drawing 475]
- pest or weed control at 500 g/ha [2]: 90%

SMILES: CN(Cc1ccc(C(F)(F)F)nc1)C1=CC(=O)OC1 [Compound 125]
- activity after 5 days [2]: 100%
- activity after 7 days [6]: 100%
- death rate after 2 days [5]: 90%
- activity (no fertile eggs laid) [7]: 80%

SMILES: CN(Cc1cccnc1)C1=CC(=O)OC1 [Compound 147]
- activity after 5 days [2]: 100%

SMILES: CON(Cc1ccc(Cl)nc1)C1=CC(=O)OC1 [Compound 98]
- activity after 5 days [2]: 100%
- activity after 7 days [6]: 100%
- death rate after 2 days [5]: 100%
